Reference: ChEMBL document CHEMBL1145302, “Synthesis and antibacterial activity of C6-carbazate ketolides” (2006)
In brackets after ≈: the same amount, converted by molar mass.

Columns and labels:
Assay type in all cases: functional
Streptococcus pneumoniae [1] = assay: Antibacterial activity against erythromycin-susceptible Streptococcus pneumoniae OC9132
Staphylococcus aureus [2] = assay: Antibacterial activity against erythromycin-susceptible Staphylococcus aureus Smith OC4172 in presence of 50% mouse serum
Staphylococcus aureus [3] = assay: Antibacterial activity against erythromycin-susceptible Staphylococcus aureus Smith OC4172
Streptococcus pneumoniae [4] = assay: Antibacterial activity against erythromycin-resistant Streptococcus pneumoniae OC4421 containing mef(A)
Streptococcus pneumoniae [5] = assay: Antibacterial activity against erythromycin-resistant Streptococcus pneumoniae OC4051 containing erm(B)
Haemophilus influenzae = assay: Antibacterial activity against telithromycin-susceptible Haemophilus influenzae ATCC 49766
[6] = test system: Staphylococcus haemolyticus; assay: Antibacterial activity against erythromycin resistant Staphylococcus haemolyticus OC3882 containing erm(C)
Staphylococcus aureus [7] = assay: Antibacterial activity against Staphylococcus aureus Smith infected in orally dosed Swiss Webster mouse septicemia model; details: po
Staphylococcus aureus [8] = assay: Antibacterial activity against Staphylococcus aureus Smith infected in sc dosed Swiss Webster mouse septicemia model

Structure (SMILES): CC[C@H]1OC(=O)[C@H](C)C(=O)[C@H](C)[C@@H](O[C@@H]2O[C@H](C)C[C@H](N(C)C)[C@H]2O)[C@](C)(OC(=O)NN(C)CCc2ccc(-c3ncco3)cc2)C[C@@H](C)C(=O)[C@H](C)[C@H]2NC(=O)O[C@@]21C
- MIC (Streptococcus pneumoniae [1]): 0.03 µg/mL (≈ 0.0356 µM)
- MIC (Staphylococcus aureus [2]): 0.5 µg/mL
- MIC (Staphylococcus aureus [3]): 0.25 µg/mL (≈ 0.297 µM)
- MIC (Streptococcus pneumoniae [4]): 0.12 µg/mL (≈ 0.143 µM)
- MIC (Streptococcus pneumoniae [5]): 0.06 µg/mL (≈ 0.0713 µM)
- MIC (Haemophilus influenzae): 2 µg/mL (≈ 2.38 µM)
- MIC [6]: 0.5 µg/mL (≈ 0.594 µM)

Structure (SMILES): CC[C@H]1OC(=O)[C@H](C)C(=O)[C@H](C)[C@@H](O[C@@H]2O[C@H](C)C[C@H](N(C)C)[C@H]2O)[C@](C)(OC(=O)NN(C)C/C=C/c2ccc(-c3ncccn3)cc2)C[C@@H](C)C(=O)[C@H](C)[C@H]2NC(=O)O[C@@]21C
- MIC (Streptococcus pneumoniae [1]): 0.03 µg/mL (≈ 0.0347 µM)
- MIC (Staphylococcus aureus [2]): 0.5 µg/mL
- MIC (Staphylococcus aureus [3]): 0.25 µg/mL (≈ 0.289 µM)
- MIC (Streptococcus pneumoniae [4]): 0.5 µg/mL (≈ 0.578 µM)
- MIC (Streptococcus pneumoniae [5]): 0.25 µg/mL (≈ 0.289 µM)
- MIC (Haemophilus influenzae): 8 µg/mL (≈ 9.25 µM)
- MIC [6]: 0.5 µg/mL (≈ 0.578 µM)

Structure (SMILES): CC[C@H]1OC(=O)[C@H](C)C(=O)[C@H](C)[C@@H](O[C@@H]2O[C@H](C)C[C@H](N(C)C)[C@H]2O)[C@](C)(OC(=O)NN(C)Cc2ccc(-c3ncccn3)cc2)C[C@@H](C)C(=O)[C@H](C)[C@H]2NC(=O)O[C@@]21C
- MIC (Streptococcus pneumoniae [1]): 0.06 µg/mL (≈ 0.0715 µM)
- MIC (Staphylococcus aureus [2]): 8 µg/mL
- MIC (Staphylococcus aureus [3]): 2 µg/mL (≈ 2.38 µM)
- MIC (Streptococcus pneumoniae [4]): 1 µg/mL (≈ 1.19 µM)
- MIC (Streptococcus pneumoniae [5]): 0.5 µg/mL (≈ 0.596 µM)
- MIC (Haemophilus influenzae): 4 µg/mL (≈ 4.77 µM)
- MIC [6]: 2 µg/mL (≈ 2.38 µM)

Structure (SMILES): CC[C@H]1OC(=O)[C@H](C)C(=O)[C@H](C)[C@@H](O[C@@H]2O[C@H](C)C[C@H](N(C)C)[C@H]2O)[C@](C)(OC(=O)NN(C)CCc2ccc(-c3ncccn3)s2)C[C@@H](C)C(=O)[C@H](C)[C@H]2NC(=O)O[C@@]21C
- MIC (Streptococcus pneumoniae [1]): 0.03 µg/mL (≈ 0.0349 µM)
- MIC (Staphylococcus aureus [2]): 0.5 µg/mL
- MIC (Staphylococcus aureus [3]): 0.25 µg/mL (≈ 0.291 µM)
- MIC (Streptococcus pneumoniae [4]): 0.12 µg/mL (≈ 0.14 µM)
- ED50 (Staphylococcus aureus [7]): > 20 mg/kg
- ED50 (Staphylococcus aureus [8]): 4.8 mg/kg
- MIC (Streptococcus pneumoniae [5]): 0.06 µg/mL (≈ 0.0698 µM)
- MIC (Haemophilus influenzae): 2 µg/mL (≈ 2.33 µM)
- MIC [6]: 0.25 µg/mL (≈ 0.291 µM)

Structure (SMILES): CC[C@H]1OC(=O)[C@H](C)C(=O)[C@H](C)[C@@H](O[C@@H]2O[C@H](C)C[C@H](N(C)C)[C@H]2O)[C@](C)(OC)C[C@@H](C)C(=O)[C@H](C)[C@H]2N(CCCCn3cnc(-c4cccnc4)c3)C(=O)O[C@]12C [TELITHROMYCIN]
- MIC (Streptococcus pneumoniae [1]): 0.06 µg/mL (≈ 0.0739 µM)
- MIC (Staphylococcus aureus [2]): 0.5 µg/mL
- MIC (Staphylococcus aureus [3]): 0.25 µg/mL (≈ 0.308 µM)
- MIC (Streptococcus pneumoniae [4]): 0.12 µg/mL (≈ 0.148 µM)
- ED50 (Staphylococcus aureus [7]): > 20 mg/kg
- ED50 (Staphylococcus aureus [8]): 4.3 mg/kg
- MIC (Streptococcus pneumoniae [5]): 0.06 µg/mL (≈ 0.0739 µM)
- MIC (Haemophilus influenzae): 1 µg/mL (≈ 1.23 µM)
- MIC [6]: 0.25 µg/mL (≈ 0.308 µM)

Structure (SMILES): CC[C@H]1OC(=O)[C@H](C)C(=O)[C@H](C)[C@@H](O[C@@H]2O[C@H](C)C[C@H](N(C)C)[C@H]2O)[C@](C)(OC(=O)NN)C[C@@H](C)C(=O)[C@H](C)[C@H]2NC(=O)O[C@@]21C
- MIC (Streptococcus pneumoniae [1]): 0.5 µg/mL (≈ 0.761 µM)
- MIC (Staphylococcus aureus [2]): 2 µg/mL
- MIC (Staphylococcus aureus [3]): 8 µg/mL (≈ 12.2 µM)
- MIC (Streptococcus pneumoniae [4]): 8 µg/mL (≈ 12.2 µM)
- MIC (Streptococcus pneumoniae [5]): 8 µg/mL (≈ 12.2 µM)
- MIC (Haemophilus influenzae): 8 µg/mL (≈ 12.2 µM)
- MIC [6]: 16 µg/mL (≈ 24.4 µM)

Structure (SMILES): CC[C@H]1OC(=O)[C@H](C)C(=O)[C@H](C)[C@@H](O[C@@H]2O[C@H](C)C[C@H](N(C)C)[C@H]2O)[C@](C)(OC(=O)NN(C)CCc2ccc(-c3ncccn3)cc2)C[C@@H](C)C(=O)[C@H](C)[C@H]2NC(=O)O[C@@]21C
- MIC (Streptococcus pneumoniae [1]): 0.03 µg/mL (≈ 0.0352 µM)
- MIC (Staphylococcus aureus [2]): 0.5 µg/mL
- MIC (Staphylococcus aureus [3]): 0.25 µg/mL (≈ 0.293 µM)
- MIC (Streptococcus pneumoniae [4]): 0.25 µg/mL (≈ 0.293 µM)
- ED50 (Staphylococcus aureus [7]): > 20 mg/kg
- ED50 (Staphylococcus aureus [8]): 3.3 mg/kg
- MIC (Streptococcus pneumoniae [5]): 0.06 µg/mL (≈ 0.0703 µM)
- MIC (Haemophilus influenzae): 4 µg/mL (≈ 4.69 µM)
- MIC [6]: 0.5 µg/mL (≈ 0.586 µM)

Structure (SMILES): CC[C@H]1OC(=O)[C@H](C)C(=O)[C@H](C)[C@@H](O[C@@H]2O[C@H](C)C[C@H](N(C)C)[C@H]2O)[C@](C)(OC(=O)NNCCc2ccc(-c3ncccn3)cc2)C[C@@H](C)C(=O)[C@H](C)[C@H]2NC(=O)O[C@@]21C
- MIC (Streptococcus pneumoniae [1]): 0.03 µg/mL (≈ 0.0358 µM)
- MIC (Staphylococcus aureus [2]): 0.25 µg/mL
- MIC (Staphylococcus aureus [3]): 0.25 µg/mL (≈ 0.298 µM)
- MIC (Streptococcus pneumoniae [4]): 0.12 µg/mL (≈ 0.143 µM)
- MIC (Streptococcus pneumoniae [5]): 0.12 µg/mL (≈ 0.143 µM)
- MIC (Haemophilus influenzae): 4 µg/mL (≈ 4.77 µM)
- MIC [6]: 0.25 µg/mL (≈ 0.298 µM)

Structure (SMILES): CC[C@H]1OC(=O)[C@H](C)[C@@H](O[C@H]2C[C@@](C)(OC)[C@@H](O)[C@H](C)O2)[C@H](C)[C@@H](O[C@@H]2O[C@H](C)C[C@H](N(C)C)[C@H]2O)[C@](C)(O)C[C@@H](C)C(=O)[C@H](C)[C@@H](O)[C@]1(C)O [ERYTHROMYCIN]
- MIC (Streptococcus pneumoniae [1]): 0.06 µg/mL (≈ 0.0818 µM)
- MIC (Staphylococcus aureus [2]): 0.06 µg/mL
- MIC (Staphylococcus aureus [3]): 1 µg/mL (≈ 1.36 µM)
- MIC (Streptococcus pneumoniae [4]): 4 µg/mL (≈ 5.45 µM)
- MIC (Streptococcus pneumoniae [5]): > 16 µg/mL
- MIC (Haemophilus influenzae): 8 µg/mL (≈ 10.9 µM)
- MIC [6]: > 16 µg/mL

Structure (SMILES): CC[C@H]1OC(=O)[C@H](C)C(=O)[C@H](C)[C@@H](O[C@@H]2O[C@H](C)C[C@H](N(C)C)[C@H]2O)[C@](C)(OC(=O)N(C)N(C)CCc2ccc(-c3cnccn3)cc2)C[C@@H](C)C(=O)[C@H](C)[C@H]2NC(=O)O[C@@]21C
- MIC (Streptococcus pneumoniae [1]): 0.06 µg/mL (≈ 0.0692 µM)
- MIC (Staphylococcus aureus [2]): 4 µg/mL
- MIC (Staphylococcus aureus [3]): 2 µg/mL (≈ 2.31 µM)
- MIC (Streptococcus pneumoniae [4]): 0.5 µg/mL (≈ 0.577 µM)
- MIC (Streptococcus pneumoniae [5]): 0.5 µg/mL (≈ 0.577 µM)
- MIC (Haemophilus influenzae): 16 µg/mL (≈ 18.5 µM)
- MIC [6]: 8 µg/mL (≈ 9.23 µM)
